The record followed here is ChEMBL document CHEMBL2046310, “Synthesis and biological evaluation of novel 4β-(1,3,4-oxadiazole-2-amino)-podophyllotoxin derivatives” (Bioorg Med Chem Lett, 2012).

The IC50 is the concentration that gives 50% inhibition.

The source made the active and inactive calls. The calls are words filed in the database; no cut-off is given here.

Test [1] concerns HepG2. Briefly: cells. Particulars: Homo sapiens, HepG2, 72 h.
Description: (§1) Cytotoxicity against human HepG2 cells after 72 hrs by MTT assay
In a further test the test system is SH-SY5Y. As to the kind of experiment: Cytotoxicity against human SH-SY5Y cells after 72 hrs by MTT assay. The format is functional, cell-based. In general terms: Tetrazolium assays rely on reduction of a dye to a coloured formazan, in cell work by metabolically active cells.
The test system of the next test is Vero. Briefly: Cytotoxicity against african green monkey Vero cells after 72 hrs by MTT assay. Type of test: cell-based. The conditions noted are these: Chlorocebus sabaeus.
Another test concerns HeLa. Briefly: cells. The conditions noted are these: Homo sapiens, 72 h.
Another test deals with L929. As to the kind of experiment: Cytotoxicity against mouse L929 cells after 72 hrs by MTT assay. Particulars: L929, 72 h. Type of test: cell-based.
Another test has as its system DU-145. Briefly: Cytotoxicity against human DU145 cells after 72 hrs by MTT assay. Type of test: functional, cell-based. The conditions noted are these: DU-145, 72 h.
In a further test the test system is A549. Briefly: Cytotoxicity against human A549 cells after 72 hrs by MTT assay. Type of test: functional, cell-based. Particulars: A549, 72 h.
The next test has as its system SGC-7901. Briefly: Cytotoxicity against human SGC7901 cells after 72 hrs by MTT assay. Type of test: functional, cell-based. Particulars: SGC-7901, 72 h.
The test system of test [2] is HepG2. As to the kind of experiment: Induction of apoptosis in human HepG2 cells assessed as late apoptotic to necrotic cells at 0.25 uM after 48 hrs by annexinV/propidium iodide staining-based flow cytometric analysis (reference value: 1.61%). Type of test: functional.
In test [3] the test system is HepG2. As to the kind of experiment: Induction of apoptosis in human HepG2 cells assessed as early apoptotic cells at 0.25 uM after 48 hrs by annexinV/propidium iodide staining-based flow cytometric analysis (reference value: 0.47%). The format is functional. (In general: In flow cytometry, cells or beads pass a laser one at a time.)
Test [4] has as its system HepG2. As to the kind of experiment: Induction of apoptosis in human HepG2 cells assessed as early apoptotic cells at 0.5 uM after 48 hrs by annexinV/propidium iodide staining-based flow cytometric analysis (reference value: 0.47%). The format is functional.
For test [5], the system named is HepG2. As to the kind of experiment: Cell cycle arrest in human HepG2 cells assessed as accumulation at subG1 after 48 hrs by propidium iodide staining-based flow cytometric analysis. Type of test: functional.
The test system of test [6] is HepG2. Briefly: Induction of apoptosis in human HepG2 cells assessed as late apoptotic to necrotic cells at 2 uM after 48 hrs by annexinV/propidium iodide staining-based flow cytometric analysis (reference value: 1.61%). Type of test: functional.
For test [7], the system named is HepG2. As to the kind of experiment: Inhibition of DNA topoisomerase 2alpha protein expression in human HepG2 cells at 0.5 to 1 uM after 48 hrs by Western blot analysis. The format is functional, cell-based. (In western blotting, separated proteins are transferred to a membrane and probed.)
Test [8] deals with HepG2. Particulars: Homo sapiens.
Description: as §1
Test [9] has as its system HepG2. As to the kind of experiment: Cytotoxicity against human HepG2 cells by MTT assay. The format is functional, cell-based. The conditions noted are these: TDE = time-dependent effect.
For test [10], the system named is HepG2. Briefly: Induction of apoptosis in human HepG2 cells assessed as […] of nuclear fragment at 0.25 to 2 uM after 48 hrs by Hoechst staining-based microscopic analysis. The format is functional, cell-based.
For test [11], the system named is HepG2. As to the kind of experiment: Induction of apoptosis in human HepG2 cells assessed as late apoptotic to necrotic cells at 1 uM after 48 hrs by annexinV/propidium iodide staining-based flow cytometric analysis (reference value: 1.61%). Type of test: functional.
Test [12] relates to HepG2. Briefly: Induction of apoptosis in human HepG2 cells assessed as early apoptotic cells at 1 uM after 48 hrs by annexinV/propidium iodide staining-based flow cytometric analysis (reference value: 0.47%). The format is functional.
The test system of test [13] is HepG2. Briefly: Inhibition of DNA topoisomerase 2beta mRNA expression in human HepG2 cells at 0.5 to 8 uM after 6 hrs by RT-PCR analysis. Type of test: functional, cell-based.
Test [14] concerns HepG2. Briefly: Induction of apoptosis in human HepG2 cells assessed as appearance of apoptotic bodies at 0.25 to 2 uM after 48 hrs by Hoechst staining-based microscopic analysis. Type of test: functional, cell-based.
Test [15] deals with HepG2. Briefly: Induction of apoptosis in human HepG2 cells assessed as late apoptotic to necrotic cells at 0.5 uM after 48 hrs by annexinV/propidium iodide staining-based flow cytometric analysis (reference value: 1.61%). Type of test: functional.
In test [16] the test system is HepG2. Briefly: Induction of apoptosis in human HepG2 cells assessed as early apoptotic cells at 2 uM after 48 hrs by annexinV/propidium iodide staining-based flow cytometric analysis (reference value: 0.47%). Type of test: functional.
The test system of test [17] is HepG2. As to the kind of experiment: Cell cycle arrest in human HepG2 cells assessed as accumulation at S phase after 48 hrs by propidium iodide staining-based flow cytometric analysis. Type of test: functional.

Description for HeLa: Cytotoxicity against human HeLa cells after 72 hrs by MTT assay

Regarding `COc1cc([C@@H]2c3cc4c(cc3[C@@H](Nc3nnc(-c5ccco5)o3)[C@H]3COC(=O)[C@H]23)OCO4)cc(OC)c1OC`, the half-inhibitory concentration (IC50) in the test on HepG2 [1] is 38.8 µM; in the test on SH-SY5Y it was 29.5 µM; with Vero, more than 100 µM; in the test with HeLa it was 58.9 µM; with L929, more than 100 µM; in the test with DU-145, 35.4 µM. In the test on A549, this compound had an IC50 of 69.2 µM.

Regarding `COc1cc([C@@H]2c3cc4c(cc3[C@@H](Nc3nnc(-c5cccs5)o3)[C@H]3COC(=O)[C@H]23)OCO4)cc(OC)c1OC`, the IC50 with HepG2 [1] is 38.8 µM; in the test on SH-SY5Y it was 20 µM; in the test with Vero, more than 100 µM; with HeLa, 42.5 µM; with SGC-7901 (read-out: IC50), 56.6 µM; in the test with L929, 70.9 µM. The IC50 in the test on DU-145 and with A549 was more than 100 µM in each case.

For the compound `COc1cc([C@@H]2c3cc4c(cc3[C@H](O)[C@H]3COC(=O)[C@H]23)OCO4)cc(OC)c1OC` [PODOFILOX], the IC50 in the test with HepG2 [1] stood at 2.27 µM; in the test with SH-SY5Y, 2.54 µM; in the test on Vero, 1.78 µM; with HeLa it was 7.58 µM; with SGC-7901 (read-out: IC50), 2.95 µM; with L929, 1.37 µM. The results for the half-inhibitory concentration (IC50) with DU-145 and with A549 were more than 100 µM and 13.6 µM, respectively.

Regarding `COc1cc([C@@H]2c3cc4c(cc3[C@@H](Nc3nnc(-c5ccncc5)o3)[C@H]3COC(=O)[C@H]23)OCO4)cc(OC)c1OC`, the IC50 is 96.6 µM with HepG2 [1]; 41.5 µM in the test with SH-SY5Y; more than 100 µM in the test on Vero; more than 100 µM in the test with HeLa; more than 100 µM in the test with SGC-7901 (read-out: IC50); 20.5 µM with L929. For the same compound, the concentration for half-maximal inhibition (IC50) in the test on DU-145 and in the test with A549 was more than 100 µM each time.

Turning to `COc1cc([C@@H]2c3cc4c(cc3[C@@H](Nc3nnc(-c5ccc([N+](=O)[O-])cc5)o3)[C@H]3COC(=O)[C@H]23)OCO4)cc(OC)c1OC`, the IC50 is more than 100 µM with HepG2 [1]; 16.6 µM in the test with SH-SY5Y; more than 100 µM with HeLa; more than 100 µM in the test with SGC-7901 (read-out: IC50); more than 100 µM in the test with L929; more than 100 µM in the test on DU-145.

With `COc1cc([C@@H]2c3cc4c(cc3[C@@H](O[C@@H]3O[C@@H]5CO[C@@H](C)O[C@H]5[C@H](O)[C@H]3O)[C@H]3COC(=O)[C@H]23)OCO4)cc(OC)c1O` [ETOPOSIDE], the IC50 in the test with HepG2 [1] is 5.48 µM; with SH-SY5Y, 5.37 µM; with Vero, 31.1 µM; in the test on HeLa, 96.3 µM; in the test on SGC-7901 (read-out: IC50) it was 12.1 µM; in the test on L929 it was 1 µM. Moreover, the IC50 was 64.3 µM with DU-145 and 10.1 µM in the test on A549.

For the compound `COc1cc([C@@H]2c3cc4c(cc3[C@@H](Nc3nnc(-c5cccnc5)o3)[C@H]3COC(=O)[C@H]23)OCO4)cc(OC)c1OC`, the IC50 is 72.8 µM in the test with HepG2 [1]; 22.5 µM in the test with SH-SY5Y; more than 100 µM in the test with Vero; more than 100 µM with HeLa; more than 100 µM in the test on SGC-7901 (read-out: IC50); 54.6 µM with L929. The IC50 with DU-145 and with A549 was more than 100 µM in each case.

For the compound `COc1cc([C@@H]2c3cc4c(cc3[C@@H](Nc3nnc(C)o3)[C@H]3COC(=O)[C@H]23)OCO4)cc(OC)c1OC`, the Activity is 1.31% with HepG2 [2]; 0.62% with HepG2 [3]; 1.45% in the test on HepG2 [4]; “Dose-dependent effect” with HepG2 [5]; 30.27% in the test with HepG2 [6]; 9.51% in the test with HepG2 [11]. Further, the Activity is 8.03% in the test with HepG2 [12], 2.77% in the test on HepG2 [15], 20.68% in the test with HepG2 [16] and “Dose-dependent effect” with HepG2 [17]. For the same compound, the IC50 was determined as 1.51 µM in the test on HepG2 [1]; 14.7 µM in the test on SH-SY5Y; 5.49 µM in the test on Vero; 2.68 µM with HeLa; 38.1 µM in the test with SGC-7901 (read-out: IC50); 19.6 µM in the test with L929. The IC50 in the test with DU-145 and with A549 was more than 100 µM each time. The inhibition result with HepG2 [7] and in the test with HepG2 [13] was “Active” in each case. The inhibition result with HepG2 [8] was “Dose-dependent effect”; in the test on HepG2 [9] it was “tde”. The outcome with HepG2 [10] and in the test on HepG2 [14] was Active.

`O=c1[nH]cc(F)c(=O)[nH]1` [FLUOROURACIL]: the half-maximal inhibitory concentration (IC50) is 32.2 µM with HepG2 [1]; 1.09 µM with SH-SY5Y; more than 100 µM in the test on Vero; 16 µM in the test on HeLa; 14.5 µM with SGC-7901; 1.38 µM in the test with L929. The compound also came in with a half-maximal inhibitory concentration (IC50) in the test with DU-145 of 12.3 µM.

`COc1cc([C@@H]2c3cc4c(cc3[C@@H](Nc3nnco3)[C@H]3COC(=O)[C@H]23)OCO4)cc(OC)c1OC`: the IC50 was 11.8 µM with HepG2 [1]; 25.8 µM in the test with SH-SY5Y; 15.4 µM in the test with Vero; more than 100 µM in the test with HeLa; more than 100 µM with SGC-7901 (read-out: IC50); 43.3 µM in the test with L929. The values for the IC50 in the test with DU-145 and in the test on A549 were 11.3 µM and more than 100 µM, respectively.

`COc1cc([C@@H]2c3cc4c(cc3[C@@H](Nc3nnc(C)o3)[C@H]3COC(=O)[C@H]23)OCO4)cc(OC)c1O`: the IC50 in the test with HepG2 [1] amounted to 17.9 µM; in the test with SH-SY5Y, 4.61 µM; in the test on Vero, 46.1 µM; with HeLa, 18.8 µM; in the test on SGC-7901 (read-out: IC50) it was 9.76 µM; in the test on L929, 4.82 µM. The results for the half-maximal inhibitory concentration (IC50) in the test on DU-145 and in the test with A549 were 60.6 µM and more than 100 µM, respectively.

With `COc1cc([C@@H]2c3cc4c(cc3[C@@H](Nc3nnc(-c5ccccc5)o3)[C@H]3COC(=O)[C@H]23)OCO4)cc(OC)c1OC`, the IC50 was 74.2 µM in the test with HepG2 [1]; 26.9 µM with SH-SY5Y; more than 100 µM in the test with Vero; 85.3 µM in the test on HeLa; more than 100 µM in the test on SGC-7901 (read-out: IC50); more than 100 µM with L929. Also, in the test with DU-145, the half-inhibitory concentration (IC50) was more than 100 µM.

For `COc1ccc(-c2nnc(N[C@@H]3c4cc5c(cc4[C@@H](c4cc(OC)c(OC)c(OC)c4)[C@H]4C(=O)OC[C@@H]43)OCO5)o2)cc1`, the half-inhibitory concentration (IC50) with HepG2 [1] is 27.9 µM; in the test on SH-SY5Y it was 7.39 µM; with Vero, 7.43 µM; in the test with HeLa, 17.7 µM; in the test on SGC-7901 (read-out: IC50), more than 100 µM; in the test on L929, 18.2 µM. Besides, the concentration for half-maximal inhibition (IC50) in the test on DU-145 stood at 76.1 µM; in the test on A549 it was 53.7 µM.
